# Measurements published in paper PMC6193938, “Characterization of a novel AICARFT inhibitor which potently elevates ZMP and has anti-tumor activity in murine models” (Scientific Reports, 2018).
# Read-outs that look alike come from different tables or passages of the source.
# Test system: panel of human cell lines
# Test: In vitro proliferation assay, Cell Titer Glo, two doubling times, 298 cell lines
# Type: cell-based
# Conditions: read-out: ABS_IC50_VALUE
# Excerpt: Cell Titer Glo measures ATP, thus the IC50s represent both the effect on purine production and cell proliferation, which are related. […] Folates are actively taken up in cells by reduced folate carrier (SLC19A1), proton-coupled folate transporter (SLC46A1), and the FOLR1 folate receptor[17]. Once inside the cell, folates are trapped by polyglutamation catalyzed by folylpolyglutamate synthetase (FPGS). […] Gene expression data for ATIC, GART, APRT, HPRT, FOLR1, SLC19A1, SLC46A1 & FPGS are shown in Fig. 2, since these genes were anticipated to predict sensitivity. […] The MDA-MB-231 cell line is reduced folate carrier (SLC19A1) negative due to epigenetic silencing.
# Cells were cultured using recommended culture conditions unless noted otherwise (Supplemental Table 3). Cells were plated, dosed with compound and incubated at 37 °C for approximately 2 doubling times as determined for each cell line. Cell Titer Glo (Promega) assay was used to measure proliferation according to manufacturer’s recommendations by measuring luminescence with Flexstation3 (Molecular Devices) with 500 ms integration time. […] The % response was fit to a four-parameter logistic equation using ACTIVITYBASE 4.0 to determine the absolute IC50 values.
# Cell Lines: Cell lines of adrenal gland, autonomic ganglia, biliary tract, blood ALL, blood AML, blood CML, blood hodgkin lymphoma, blood lymphoma, blood multiple myeloma, blood NHL, blood RAEB, bone, breast ER+, breast fibroblast, breast fibroblast mixed, breast HER2, breast normal, breast triple negative, cervix, CNS, endometrium, eye, fibroblast normal, kidney ns, kidney renal, large intestine, liver, liver normal, lung adenocarcinoma, lung ns, lung NSCLC, lung NSCLC mixed, lung SCLC, lung squamous, melanoma, melanoma normal, esophagus adenocarcinoma, esophagus ns, esophagus squamous, ovary, pancreas adenocarcinoma, pancreas ductal carcinoma, pancreas ns, pleura mesothelioma, prostate adenocarcinoma, prostate small cell, salivary gland, small intestine, soft tissue, stomach, testis, thyroid, thyroid squamous, umbilical vein endothelial cell normal, upper aerodigestive tract squamous, urinary tract ns, urinary tract transitional cell carcinoma, and vulva squamous origin were obtained from ATCC, CASTCC, CLS, DSMZ, ECACC, HSRRB, ICLC, JCRB, NCI, Riken and SNU cell banks. The murine A9 cell line was acquired from the ATCC (CCL-1.4).
smiles,measurement,setting,value
"O=c1[nH]ccc2cc(F)c(NS(=O)(=O)c3ccc(N4CC[C@@H](O)C4)s3)cc12 [LSN3213128, N-(6-Fluoro-1-oxo-1,2-dihydroisoquinolin-7-yl)-5-[(3R)-3-hydroxypyrrolidin-1-yl]thiophene-2-sulfonamide]",IC50,"Homo sapiens, 22Rv1, 22RV1, prostate",13.7 µM
same,IC50,"Homo sapiens, 769-P, kidney",1.21 µM
same,IC50,"Homo sapiens, 5637, urinary tract",2.88 µM
same,IC50,"Homo sapiens, 8505C, thyroid",> 20 µM
same,IC50,"Homo sapiens, A101D, skin",2.22 µM
same,IC50,"Homo sapiens, A204, A204, soft tissue",> 20 µM
same,IC50,"Homo sapiens, A253, A253, salivary gland",> 20 µM
same,IC50,"Homo sapiens, A498, A498, kidney",12.2 µM
same,IC50,"Homo sapiens, A549, A549, lung",> 20 µM
same,IC50,"Homo sapiens, A2058, A2058, skin",> 20 µM
same,IC50,"Homo sapiens, A2780, A2780, ovary",3.23 µM
same,IC50,"Homo sapiens, ACHN, kidney",1.94 µM
same,IC50,"Homo sapiens, AGS, stomach",> 20 µM
same,IC50,"Homo sapiens, ASPC1, AsPC-1, pancreas",> 20 µM
same,IC50,"Homo sapiens, AU565, AU565, breast",0.58 µM
same,IC50,"Homo sapiens, BCP-1, BCP-1, haematopoietic and lymphoid tissue",11.1 µM
same,IC50,"Homo sapiens, BT-20, BT-20, breast",> 20 µM
same,IC50,"Homo sapiens, BT-474, BT-474, breast",> 20 µM
same,IC50,"Homo sapiens, BT-483, BT-483, breast",> 20 µM
same,IC50,"Homo sapiens, BT-549, BT-549, breast",> 20 µM
same,IC50,"Homo sapiens, BXPC-3, BxPC-3, pancreas",4.49 µM
same,IC50,"Homo sapiens, C2BBe1, C2BBe1, large intestine",> 20 µM
same,IC50,"Homo sapiens, C3A, liver",25.2 µM
same,IC50,"Homo sapiens, C32, skin",> 20 µM
same,IC50,"Homo sapiens, CA46, CA46, haematopoietic and lymphoid tissue",> 20 µM
same,IC50,"Homo sapiens, CAKI-1, Caki-1, kidney",> 20 µM
same,IC50,"Homo sapiens, CAKI-2, Caki-2, kidney",5.03 µM
same,IC50,"Homo sapiens, CAMA-1, CAMA-1, breast",> 20 µM
same,IC50,"Homo sapiens, CAPAN-1, CAPAN-1, pancreas",> 20 µM
same,IC50,"Homo sapiens, CCF-STTG1, CCF-STTG1, central nervous system",> 20 µM
same,IC50,"Homo sapiens, CFPAC-1, CFPAC-1, pancreas",> 20 µM
same,IC50,"Homo sapiens, CHL-1, CHL-1, skin",> 20 µM
same,IC50,"Homo sapiens, CHP-212, CHP-212, autonomic ganglia",> 20 µM
same,IC50,"Homo sapiens, COLO 205, COLO-205, large intestine",1.68 µM
same,IC50,"Homo sapiens, COLO-320-HSR, large intestine",3.3 µM
same,IC50,"Homo sapiens, COLO-680N, oesophagus",2.05 µM
same,IC50,"Homo sapiens, COLO-741, COLO-741, large intestine",1.58 µM
same,IC50,"Homo sapiens, COR-L23, COR-L23, lung",1.4 µM
same,IC50,"Homo sapiens, Calu-1, Calu-1, lung",> 20 µM
same,IC50,"Homo sapiens, Calu-3, Calu-3, lung",2.27 µM
same,IC50,"Homo sapiens, Calu-6, Calu-6, lung",11.9 µM
same,IC50,"Homo sapiens, Capan-2, Capan-2, pancreas",15.3 µM
same,IC50,"Homo sapiens, ChaGo-K-1, ChaGo-K-1, lung",> 20 µM
same,IC50,"Homo sapiens, D341 Med, central nervous system",> 20 µM
same,IC50,"Homo sapiens, DB, haematopoietic and lymphoid tissue",10.8 µM
same,IC50,"Homo sapiens, DMS-53, DMS-53, lung",> 20 µM
same,IC50,"Homo sapiens, Daoy, central nervous system",1.02 µM
same,IC50,"Homo sapiens, Daudi, haematopoietic and lymphoid tissue",1.1 µM
same,IC50,"Homo sapiens, EB1, haematopoietic and lymphoid tissue",1.28 µM
same,IC50,"Homo sapiens, EB2, haematopoietic and lymphoid tissue",> 20 µM
same,IC50,"Homo sapiens, ES-2, ovary",> 20 µM
same,IC50,"Homo sapiens, F-36P, haematopoietic and lymphoid tissue",0.79 µM
same,IC50,"Homo sapiens, G-361, G-361, skin",> 20 µM
same,IC50,"Homo sapiens, G-401, G-401, kidney",> 20 µM
same,IC50,"Homo sapiens, G-402, G-402, soft tissue",> 20 µM
same,IC50,"Homo sapiens, GCT, soft tissue",> 20 µM
same,IC50,"Homo sapiens, GI-1, central nervous system",15.5 µM
same,IC50,"Homo sapiens, GP2d, large intestine",14.3 µM
same,IC50,"Homo sapiens, HCC38, HCC38, breast",> 20 µM
same,IC50,"Homo sapiens, HCC70, HCC70, breast",> 20 µM
same,IC50,"Homo sapiens, HCC202, HCC202, breast",> 20 µM
same,IC50,"Homo sapiens, HCC827, HCC827, lung",16 µM
same,IC50,"Homo sapiens, HCC1143, HCC1143, breast",> 20 µM
same,IC50,"Homo sapiens, HCC1187, HCC1187, breast",> 20 µM
same,IC50,"Homo sapiens, HCC1395, HCC1395, breast",> 20 µM
same,IC50,"Homo sapiens, HCC1419, HCC1419, breast",10.4 µM
same,IC50,"Homo sapiens, HCC1599, HCC1599, breast",3.65 µM
same,IC50,"Homo sapiens, HCC1806, HCC1806, breast",> 20 µM
same,IC50,"Homo sapiens, HCC1937, HCC1937, breast",18.5 µM
same,IC50,"Homo sapiens, HCC1954, HCC1954, breast",0.09 µM
same,IC50,"Homo sapiens, HCC2218, HCC2218, breast",> 20 µM
same,IC50,"Homo sapiens, HCT-15, HCT-15, large intestine",3.51 µM
same,IC50,"Homo sapiens, HEC-1-A, endometrium",13.6 µM
same,IC50,"Homo sapiens, HGC-27, HGC-27, stomach",> 20 µM
same,IC50,"Homo sapiens, HL-60, HL-60, haematopoietic and lymphoid tissue",> 20 µM
same,IC50,"Homo sapiens, HLE, liver",15 µM
same,IC50,"Homo sapiens, HLF, liver",9.35 µM
same,IC50,"Homo sapiens, HMCB, skin",4.45 µM
same,IC50,"Homo sapiens, HPAF-II, pancreas",11.1 µM
same,IC50,"Homo sapiens, HSC-2, HSC-2, upper aerodigestive tract",1.28 µM
same,IC50,"Homo sapiens, HSC-3, HSC-3, upper aerodigestive tract",7.22 µM
same,IC50,"Homo sapiens, HSC-4, HSC-4, upper aerodigestive tract",2.95 µM
same,IC50,"Homo sapiens, HT1197, HT-1197, urinary tract",0.37 µM
same,IC50,"Homo sapiens, HT-29, HT-29, large intestine",> 20 µM
same,IC50,"Homo sapiens, HT-144, HT-144, skin",> 20 µM
same,IC50,"Homo sapiens, HT-1080, HT-1080, soft tissue",4 µM
same,IC50,"Homo sapiens, HT-1376, HT-1376, urinary tract",0.49 µM
same,IC50,"Homo sapiens, Hs 294T, skin",> 20 µM
same,IC50,"Homo sapiens, Hs 606.T, breast",> 20 µM
same,IC50,"Homo sapiens, Hs 688(A).T, skin",> 20 µM
same,IC50,"Homo sapiens, Hs 695T, skin",> 20 µM
same,IC50,"Homo sapiens, Hs 739.T, breast",> 20 µM
same,IC50,"Homo sapiens, Hs 839.T, skin",> 20 µM
same,IC50,"Homo sapiens, Hs 940.T, skin",> 20 µM
same,IC50,"Homo sapiens, HuCCT-1, HuCCT1, biliary tract",17.1 µM
same,IC50,"Homo sapiens, HuG1-N, stomach",2.53 µM
same,IC50,"Homo sapiens, HuTu80, HUTU-80, small intestine",0.83 µM
same,IC50,"Homo sapiens, Huh-7, HuH-7, liver",12.5 µM
same,IC50,"Homo sapiens, IA-LM, lung",> 20 µM
same,IC50,"Homo sapiens, J82, urinary tract",> 20 µM
same,IC50,"Homo sapiens, JHH7, JHH-7, liver",28.3 µM
same,IC50,"Homo sapiens, K562, K-562, haematopoietic and lymphoid tissue",0.67 µM
same,IC50,"Homo sapiens, KALS-1, KALS-1, central nervous system",> 20 µM
same,IC50,"Homo sapiens, KE-97, KE-97, stomach",1.09 µM
same,IC50,"Homo sapiens, KG-1, haematopoietic and lymphoid tissue",> 20 µM
same,IC50,"Homo sapiens, KLE, endometrium",> 20 µM
same,IC50,"Homo sapiens, KM12, KM12, large intestine",2.05 µM
same,IC50,"Homo sapiens, KNS-42, KNS-42, central nervous system",> 20 µM
same,IC50,"Homo sapiens, KNS-62, KNS-62, lung",16 µM
same,IC50,"Homo sapiens, KNS-81, central nervous system",> 20 µM
same,IC50,"Homo sapiens, KP-4, pancreas",0.74 µM
same,IC50,"Homo sapiens, KU812, KU812, haematopoietic and lymphoid tissue",0.08 µM
same,IC50,"Homo sapiens, KYSE-410, KYSE-410, oesophagus",1.56 µM
same,IC50,"Homo sapiens, Kasumi-6, haematopoietic and lymphoid tissue",> 20 µM
same,IC50,"Homo sapiens, LOUCY, haematopoietic and lymphoid tissue",1.76 µM
same,IC50,"Homo sapiens, LUDLU-1, LUDLU-1, lung",> 20 µM
same,IC50,"Homo sapiens, MCF7, MCF7, breast",11.1 µM
same,IC50,"Homo sapiens, MDA-MB-157, MDA-MB-157, breast",> 20 µM
same,IC50,"Homo sapiens, MDA-MB-415, MDA-MB-415, breast",> 20 µM
same,IC50,"Homo sapiens, MDA-MB-436, MDA-MB-436, breast",> 20 µM
same,IC50,"Homo sapiens, MDA-MB-453, MDA-MB-453, breast",> 20 µM
same,IC50,"Homo sapiens, MDA-MB-468, MDA-MB-468, breast",0.44 µM
same,IC50,"Homo sapiens, MEG-01, MEG-01, haematopoietic and lymphoid tissue",0.29 µM
same,IC50,"Homo sapiens, MG-63, MG-63, bone",> 20 µM
same,IC50,"Homo sapiens, MKN-1, MKN1, stomach",> 20 µM
same,IC50,"Homo sapiens, MKN-45, MKN45, stomach",> 20 µM
same,IC50,"Homo sapiens, MKN-74, MKN74, stomach",> 20 µM
same,IC50,"Homo sapiens, MOLT-4, MOLT-4, haematopoietic and lymphoid tissue",1.11 µM
same,IC50,"Homo sapiens, MSTO-211H, pleura",> 20 µM
same,IC50,"Homo sapiens, Malme-3M, skin",> 20 µM
same,IC50,"Homo sapiens, NCI-H23, NCI-H23, lung",14.4 µM
same,IC50,"Homo sapiens, NCI-H28, NCI-H28, pleura",> 20 µM
same,IC50,"Homo sapiens, NCI-H69, NCI-H69, lung",18.5 µM
same,IC50,"Homo sapiens, NCI-H82, NCI-H82, lung",2.28 µM
same,IC50,"Homo sapiens, NCI-H209, NCI-H209, lung",5.55 µM
same,IC50,"Homo sapiens, NCI-H226, NCI-H226, lung",4.52 µM
same,IC50,"Homo sapiens, NCI-H358, NCI-H358, lung",6.06 µM
same,IC50,"Homo sapiens, NCI-H441, NCI-H441, lung",> 20 µM
same,IC50,"Homo sapiens, NCI-H446, NCI-H446, lung",1.68 µM
same,IC50,"Homo sapiens, NCI-H460, NCI-H460, lung",0.97 µM
same,IC50,"Homo sapiens, NCI-H508, NCI-H508, large intestine",13.1 µM
same,IC50,"Homo sapiens, NCI-H520, NCI-H520, lung",9.66 µM
same,IC50,"Homo sapiens, NCI-H522, NCI-H522, lung",9.92 µM
same,IC50,"Homo sapiens, NCI-H524, NCI-H524, lung",11.3 µM
same,IC50,"Homo sapiens, NCI-H596, NCI-H596, lung",> 20 µM
same,IC50,"Homo sapiens, NCI-H647, NCI-H647, lung",1.4 µM
same,IC50,"Homo sapiens, NCI-H650, NCI-H650, lung",8.6 µM
same,IC50,"Homo sapiens, NCI-H660, NCI-H660, prostate",7.16 µM
